Measurements published in ChEMBL document CHEMBL1821644, “A prodrug approach for improving antituberculosis activity of potent Mycobacterium tuberculosis type II dehydroquinase inhibitors” (J Med Chem, 2011).
≈ marks a conversion by molar mass, not a printed value. Calls of active or inactive are those of the source. The calls are words filed in the database; no cut-off is given here.

Experiments:
MRC5 = experiment: Cytotoxicity against human MRC5 at 300 to 400 ug/ml using crystal violet staining; type: cell-based
[1] = system: Mycobacterium tuberculosis; experiment: Antimicrobial activity against Mycobacterium tuberculosis H37Rv by Microplate Alamar blue assay; type: functional
[2] = target: T1, 3-dehydroquinate dehydratase (Mycobacterium tuberculosis, UniProt P9WPX7); experiment: Competitive inhibition of Mycobacterium tuberculosis DHQ2
T1 sequence (P9WPX7 whole entry): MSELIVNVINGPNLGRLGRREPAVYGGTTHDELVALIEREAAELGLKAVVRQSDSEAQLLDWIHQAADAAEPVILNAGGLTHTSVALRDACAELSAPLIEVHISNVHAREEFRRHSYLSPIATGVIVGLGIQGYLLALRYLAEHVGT

[3] = target: T2, 3-dehydroquinate dehydratase (Helicobacter pylori (strain ATCC 700392 / 26695) (Campylobacterpylori)) (UniProt Q48255); experiment: Reversible inhibition of Helicobacter pylori DHQ2
T2 sequence (whole entry): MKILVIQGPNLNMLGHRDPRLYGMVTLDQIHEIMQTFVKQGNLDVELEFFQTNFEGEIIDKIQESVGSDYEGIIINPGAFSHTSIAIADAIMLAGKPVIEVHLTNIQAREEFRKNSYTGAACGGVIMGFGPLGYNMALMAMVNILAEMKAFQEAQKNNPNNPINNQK

[4] = target: T3, 3-dehydroquinate dehydratase (Mycobacterium tuberculosis) (UniProt P9WPX7); experiment: Reversible inhibition of Mycobacterium tuberculosis DHQ2
T3 sequence (whole entry): T1 sequence (P9WPX7 whole entry)

[5] = target: T4, 3-dehydroquinate dehydratase (Helicobacter pylori (strain ATCC 700392 / 26695) (Campylobacterpylori), UniProt Q48255); experiment: Competitive inhibition of Helicobacter pylori DHQ2
T4 sequence (Q48255 whole entry): T2 sequence (whole entry)

Row | SMILES | Activity (MRC5) | MIC [1] | Ki [2] | inhibition [3] | inhibition [4] | Ki [5]
1 | CCCOC(=O)[C@]1(O)C=C(OCc2ccc3sccc3c2)[C@@H](OC(=O)CCC)[C@H](OC(=O)CCC)C1 | Non-toxic | 20 µg/mL (≈ 38.6 µM) |  |  |  | 
2 | CCOC(=O)[C@]1(O)C=C(OCc2cc3ccccc3s2)[C@@H](O)[C@H](O)C1 | Non-toxic | 40 µg/mL (≈ 110 µM) |  |  |  | 
3 | O=C(O)[C@]1(O)C=C(OCc2cccs2)[C@@H](O)[C@H](O)C1 |  |  | 235 nM | Active | Active | 
4 | O=C(O)[C@@]1(O)C[C@@H](O)[C@H](O)C(OCc2cccs2)=C1Cc1cccs1 |  |  | 5100 nM | Active | Active | 14600 nM
5 | COC(=O)[C@]1(O)C=C(OCc2cc3cc(C)ccc3s2)[C@@H](O)[C@H](O)C1 | Non-toxic | > 160 µg/mL |  |  |  | 
6 | O=C(O)[C@]1(O)C=C(OCc2cc3ccccc3s2)[C@@H](O)[C@H](O)C1 |  |  | 28 nM | Active | Active | 
7 | COC(=O)[C@@]1(O)C[C@@H](O)[C@H](O)C(OCc2cc3cc(C)ccc3s2)=C1Cc1cc2cc(C)ccc2s1 | Non-toxic | > 160 µg/mL |  |  |  | 
8 | O=C(O)[C@@]1(O)C[C@@H](O)[C@H](O)C(OCc2ccc3ccccc3c2)=C1Cc1ccc2ccccc2c1 |  |  | 6000 nM | Active | Active | 260 nM
9 | COC(=O)[C@]1(O)C=C(OCc2cc3ccc(Cl)cc3s2)[C@@H](O)[C@H](O)C1 | Non-toxic | > 160 µg/mL |  |  |  | 
10 | O=C(O)[C@]1(O)C=C(/C=C/COc2ccc(F)cc2)[C@@H](O)[C@H](O)C1 |  |  | 120 nM |  |  | 
11 | COC(=O)[C@]1(O)C=C(OCc2cc3ccccc3s2)[C@@H](O)[C@H](O)C1 | Non-toxic | > 160 µg/mL |  |  |  | 
12 | O=C(O)[C@@]1(O)C[C@@H](O)[C@H](O)C(OCc2cc3ccccc3s2)=C1Cc1cccs1 |  |  |  | Active | Active | 280 nM
13 | O=C(O)[C@]1(O)C=C(OCc2ccc3ccccc3c2)[C@@H](O)[C@H](O)C1 |  |  | 35 nM | Active | Active | 310 nM
14 | COC(=O)[C@]1(O)C=C(OCc2ccc3sccc3c2)[C@@H](O)[C@H](O)C1 | Non-toxic | > 160 µg/mL |  |  |  | 
15 | CCCOC(=O)[C@]1(O)C=C(OCc2ccc3sccc3c2)[C@@H](O)[C@H](O)C1 | Non-toxic | 20 µg/mL (≈ 52.8 µM) |  |  |  | 
16 | CCOC(=O)[C@@]1(O)C[C@@H](O)[C@H](O)C(OCc2cc3ccc(Cl)cc3s2)=C1Cc1cc2ccc(Cl)cc2s1 | Non-toxic | > 160 µg/mL |  |  |  | 
17 | O=C(O)[C@]1(O)C=C(c2cccs2)[C@@H](O)[C@H](O)C1 |  |  | 250 nM |  |  | 
18 | O=C(O)[C@]1(O)C=C(OCc2ccc3sccc3c2)[C@@H](O)[C@H](O)C1 |  |  |  | Active | Active | 
19 | CCCC(=O)O[C@@H]1C(OCc2ccc3ccccc3c2)=C[C@@](O)(C(=O)OCC)C[C@H]1OC(=O)CCC | Non-toxic | 5 µg/mL (≈ 10 µM) |  |  |  | 
20 | CCOC(=O)[C@]1(O)C=C(OCc2ccc3sccc3c2)[C@@H](O)[C@H](O)C1 | Non-toxic | 40 µg/mL (≈ 110 µM) |  |  |  | 

Row | SMILES | Activity (MRC5) | MIC [1] | Ki [2] | inhibition [3] | inhibition [4] | Ki [5]
21 | C=CCC1=C(OCc2cc3ccccc3s2)[C@@H](O)[C@H](O)C[C@]1(O)C(=O)O |  |  |  | Active | Active | 
22 | CCCOC(=O)[C@]1(O)C=C(OCc2ccc3sccc3c2)[C@@H](OC(=O)CCC)[C@H](O)C1 | Non-toxic | 5 µg/mL (≈ 11.1 µM) |  |  |  | 
23 | CCCOC(=O)[C@]1(O)C=C(OCc2cc3ccc(Cl)cc3s2)[C@@H](O)[C@H](O)C1 | Non-toxic | 40 µg/mL (≈ 96.9 µM) |  |  |  | 
24 | O=C(O)[C@]1(O)C=C(OCc2cc3ccc(Cl)cc3s2)[C@@H](O)[C@H](O)C1 |  |  | 35 nM | Active | Active | 205 nM
25 | Cc1ccc2sc(COC3=C(Cc4cc5cc(C)ccc5s4)[C@@](O)(C(=O)O)C[C@@H](O)[C@@H]3O)cc2c1 |  |  |  | Active | Active | 50 nM
26 | CCOC(=O)[C@@]1(O)C[C@@H](O)[C@H](O)C(OCc2ccc3sccc3c2)=C1Cc1ccc2sccc2c1 | Non-toxic | 160 µg/mL (≈ 313 µM) |  |  |  | 
27 | Cc1ccc2sc(COC3=C[C@@](O)(C(=O)O)C[C@@H](O)[C@@H]3O)cc2c1 |  |  |  | Active | Active | 
28 | CCCC(=O)O[C@@H]1C(OCc2ccc3sccc3c2)=C[C@@](O)(C(=O)OCC)C[C@H]1OC(=O)CCC | Non-toxic | 5 µg/mL (≈ 9.91 µM) |  |  |  | 
29 | CCOC(=O)[C@]1(O)C=C(OCc2cc3ccc(Cl)cc3s2)[C@@H](O)[C@H](O)C1 | Non-toxic | 40 µg/mL (≈ 100 µM) |  |  |  | 
30 | CCCOC(=O)[C@]1(O)C=C(OCc2ccc3ccccc3c2)[C@@H](O)[C@H](O)C1 | Non-toxic | 10 µg/mL (≈ 26.9 µM) |  |  |  | 
31 | CCCC(=O)O[C@@H]1C(OCc2ccc3ccccc3c2)=C[C@@](O)(C(=O)OCC)C[C@H]1O | Non-toxic | 10 µg/mL (≈ 23.3 µM) |  |  |  | 
32 | CCOC(=O)[C@]1(O)C=C(OCc2ccc3ccccc3c2)[C@@H](O)[C@H](O)C1 | Non-toxic | 20 µg/mL (≈ 55.8 µM) |  |  |  | 
33 | O=C(O)[C@@]1(O)C[C@@H](O)[C@H](O)C(OCc2ccc3sccc3c2)=C1Cc1ccc2sccc2c1 |  |  |  | Active | Active | 140 nM
34 | COC(=O)[C@@]1(O)C[C@@H](O)[C@H](O)C(OCc2cc3ccc(Cl)cc3s2)=C1Cc1cc2ccc(Cl)cc2s1 | Non-toxic | 80 µg/mL (≈ 141 µM) |  |  |  | 
35 | CCCOC(=O)[C@]1(O)C=C(OCc2ccc3ccccc3c2)[C@@H](OC(=O)CCC)[C@H](OC(=O)CCC)C1 | Non-toxic | 5 µg/mL (≈ 9.75 µM) |  |  |  | 
36 | O=C(O)[C@@]1(O)C[C@@H](O)[C@H](O)C(OCc2cccs2)=C1Cc1ccc2sccc2c1 |  |  | 59 nM | Active | Active | 100 nM
37 | O=C(O)[C@@]1(O)C[C@@H](O)[C@H](O)C(OCc2cc3ccc(Cl)cc3s2)=C1Cc1cc2ccc(Cl)cc2s1 |  |  | 1100 nM | Active | Active | 6700 nM
38 | CCCOC(=O)[C@]1(O)C=C(OCc2cc3ccccc3s2)[C@@H](O)[C@H](O)C1 | Non-toxic | 5 µg/mL (≈ 13.2 µM) |  |  |  | 
39 | Cc1ccc2sc(CC3=C(OCc4cccs4)[C@@H](O)[C@H](O)C[C@]3(O)C(=O)O)cc2c1 |  |  | 870 nM | Active | Active | 279 nM
40 | O=C(O)[C@@]1(O)C[C@@H](O)[C@H](O)C(OCc2cc3ccccc3s2)=C1Cc1cc2ccccc2s1 |  |  | 40 nM | Active | Active | 97 nM
